# Source: PMC7206119, “RIP1 inhibition blocks inflammatory diseases but not tumor growth or metastases” (Cell Death and Differentiation, 2019)
# How the values were obtained:
# Experiment in all cases: biochemical
# Set-up in all cases: DiscoverX kinase panel, active-site competition binding (KINOMEscan type), percent of control at one concentration
# Details in all cases: competition binding, percent of control
# BMPR2 = BMPR2 (Homo sapiens, UniProt Q13873)
# PIK3CD = PIK3CD (Homo sapiens, UniProt O00329)
# PIK3CD, sequence (O00329 whole entry): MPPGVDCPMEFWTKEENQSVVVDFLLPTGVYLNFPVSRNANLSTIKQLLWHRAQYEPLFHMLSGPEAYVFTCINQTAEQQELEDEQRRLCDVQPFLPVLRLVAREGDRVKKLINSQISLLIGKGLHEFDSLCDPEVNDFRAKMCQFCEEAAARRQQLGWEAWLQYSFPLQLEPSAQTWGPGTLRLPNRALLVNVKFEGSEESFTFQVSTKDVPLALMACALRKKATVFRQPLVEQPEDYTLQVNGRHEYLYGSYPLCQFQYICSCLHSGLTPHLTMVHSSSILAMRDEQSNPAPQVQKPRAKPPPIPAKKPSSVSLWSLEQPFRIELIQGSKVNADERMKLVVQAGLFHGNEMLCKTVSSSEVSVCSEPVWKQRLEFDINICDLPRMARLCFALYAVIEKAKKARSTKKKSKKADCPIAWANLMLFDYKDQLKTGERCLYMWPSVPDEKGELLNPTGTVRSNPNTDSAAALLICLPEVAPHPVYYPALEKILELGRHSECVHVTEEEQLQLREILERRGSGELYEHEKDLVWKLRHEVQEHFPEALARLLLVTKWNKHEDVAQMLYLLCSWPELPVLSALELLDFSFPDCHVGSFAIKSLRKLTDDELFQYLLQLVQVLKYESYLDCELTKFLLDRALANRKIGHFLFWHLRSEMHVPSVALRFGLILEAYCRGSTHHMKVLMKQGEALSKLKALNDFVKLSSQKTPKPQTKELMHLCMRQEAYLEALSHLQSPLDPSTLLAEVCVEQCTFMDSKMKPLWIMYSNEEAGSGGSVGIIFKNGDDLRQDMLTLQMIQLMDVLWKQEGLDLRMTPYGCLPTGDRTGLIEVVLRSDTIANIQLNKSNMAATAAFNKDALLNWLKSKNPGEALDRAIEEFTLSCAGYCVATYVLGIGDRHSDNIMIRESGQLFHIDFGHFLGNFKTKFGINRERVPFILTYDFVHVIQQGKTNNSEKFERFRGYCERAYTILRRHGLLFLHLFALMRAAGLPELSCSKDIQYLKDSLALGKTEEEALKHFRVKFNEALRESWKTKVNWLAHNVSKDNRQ
# ABL1-nonphosphorylated = molecular target: T1, ABL1-nonphosphorylated (Homo sapiens, UniProt P00519)
# T1 construct: nonphosphorylated
# [1] = molecular target: T2, ABL1(E255K)-phosphorylated (Homo sapiens, UniProt P00519, E255K)
# T2 construct: phosphorylated
# FER = FER (Homo sapiens, UniProt P16591)
# EPHA2 = EPHA2 (Homo sapiens, UniProt P29317)
# [2] = molecular target: T3, ABL1(T315I)-phosphorylated (Homo sapiens, UniProt P00519, T315I)
# T3 construct: phosphorylated
# MAP3K1 = MAP3K1 (Homo sapiens, UniProt Q13233)
# MAP3K1, sequence (Q13233 whole entry): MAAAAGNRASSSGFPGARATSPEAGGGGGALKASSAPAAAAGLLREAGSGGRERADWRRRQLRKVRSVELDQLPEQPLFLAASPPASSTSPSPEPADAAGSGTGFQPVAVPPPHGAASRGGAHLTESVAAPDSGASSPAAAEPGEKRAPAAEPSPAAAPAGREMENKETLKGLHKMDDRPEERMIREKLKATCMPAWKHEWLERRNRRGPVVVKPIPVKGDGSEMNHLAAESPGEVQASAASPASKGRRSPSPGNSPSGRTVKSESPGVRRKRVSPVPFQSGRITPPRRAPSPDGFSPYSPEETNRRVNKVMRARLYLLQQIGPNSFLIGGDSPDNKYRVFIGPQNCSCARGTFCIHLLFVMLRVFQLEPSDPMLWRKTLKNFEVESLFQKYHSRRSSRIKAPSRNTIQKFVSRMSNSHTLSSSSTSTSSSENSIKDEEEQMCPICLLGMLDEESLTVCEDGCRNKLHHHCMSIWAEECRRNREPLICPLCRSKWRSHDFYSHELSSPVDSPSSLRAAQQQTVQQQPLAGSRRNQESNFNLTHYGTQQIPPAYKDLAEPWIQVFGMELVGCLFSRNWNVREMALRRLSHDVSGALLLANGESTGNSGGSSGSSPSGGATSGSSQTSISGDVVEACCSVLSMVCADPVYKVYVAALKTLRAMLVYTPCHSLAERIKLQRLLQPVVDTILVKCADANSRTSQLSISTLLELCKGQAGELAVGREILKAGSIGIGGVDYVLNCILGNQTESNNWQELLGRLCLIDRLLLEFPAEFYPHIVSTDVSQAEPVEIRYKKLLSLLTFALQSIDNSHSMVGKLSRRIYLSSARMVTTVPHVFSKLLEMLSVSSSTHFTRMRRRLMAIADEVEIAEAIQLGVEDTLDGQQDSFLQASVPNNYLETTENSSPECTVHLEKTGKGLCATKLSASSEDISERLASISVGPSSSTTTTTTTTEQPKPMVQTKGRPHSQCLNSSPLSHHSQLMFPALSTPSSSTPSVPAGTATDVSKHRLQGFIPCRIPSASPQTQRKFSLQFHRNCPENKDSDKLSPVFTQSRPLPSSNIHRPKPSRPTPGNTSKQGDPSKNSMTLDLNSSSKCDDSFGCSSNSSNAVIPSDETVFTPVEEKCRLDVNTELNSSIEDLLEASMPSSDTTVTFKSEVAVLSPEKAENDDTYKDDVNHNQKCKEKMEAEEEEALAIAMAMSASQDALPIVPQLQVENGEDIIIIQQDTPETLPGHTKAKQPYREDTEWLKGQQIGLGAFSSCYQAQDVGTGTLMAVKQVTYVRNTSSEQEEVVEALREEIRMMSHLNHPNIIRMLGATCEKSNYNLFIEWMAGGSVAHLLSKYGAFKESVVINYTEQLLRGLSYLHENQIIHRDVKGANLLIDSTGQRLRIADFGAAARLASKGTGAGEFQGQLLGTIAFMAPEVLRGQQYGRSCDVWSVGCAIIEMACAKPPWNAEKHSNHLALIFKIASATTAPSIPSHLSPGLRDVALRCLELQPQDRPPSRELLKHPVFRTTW
# SgK110 = molecular target: T4, SgK110 (Homo sapiens, UniProt P0C264)
# T4 construct: gene SBK3
# GSK3A = GSK3A (Homo sapiens, UniProt P49840)
# PKAC-alpha = molecular target: T5, PKAC-alpha (Homo sapiens, UniProt P17612)
# T5 construct: gene PRKACA
# AKT2 = AKT2 (Homo sapiens, UniProt P31751)
# MKK7 = molecular target: T6, MKK7 (Homo sapiens, UniProt O14733)
# T6 construct: gene MAP2K7
# PRKCH = PRKCH (Homo sapiens, UniProt P24723)
# PRKCH, sequence (P24723 whole entry): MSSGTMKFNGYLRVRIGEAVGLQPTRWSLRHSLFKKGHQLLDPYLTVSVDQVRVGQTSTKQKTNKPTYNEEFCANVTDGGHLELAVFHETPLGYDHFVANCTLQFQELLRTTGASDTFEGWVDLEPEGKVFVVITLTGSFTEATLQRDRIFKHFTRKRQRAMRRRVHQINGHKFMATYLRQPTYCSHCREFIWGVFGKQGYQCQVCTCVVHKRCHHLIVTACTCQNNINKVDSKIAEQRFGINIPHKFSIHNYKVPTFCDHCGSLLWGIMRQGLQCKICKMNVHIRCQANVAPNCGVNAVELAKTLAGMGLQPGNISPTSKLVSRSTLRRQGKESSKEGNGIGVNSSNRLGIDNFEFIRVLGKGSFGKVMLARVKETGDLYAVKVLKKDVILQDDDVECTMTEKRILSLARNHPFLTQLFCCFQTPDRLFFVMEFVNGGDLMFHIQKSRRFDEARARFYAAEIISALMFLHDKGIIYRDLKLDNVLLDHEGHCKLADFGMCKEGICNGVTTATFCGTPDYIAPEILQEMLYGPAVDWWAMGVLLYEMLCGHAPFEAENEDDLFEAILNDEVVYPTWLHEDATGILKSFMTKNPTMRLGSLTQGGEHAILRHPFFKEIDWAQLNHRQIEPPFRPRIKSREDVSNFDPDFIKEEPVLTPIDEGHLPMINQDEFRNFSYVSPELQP
# AMPK-alpha1 = molecular target: T7, AMPK-alpha1 (Homo sapiens, UniProt Q13131)
# T7 construct: gene PRKAA1
# PCTK1 = molecular target: T8, PCTK1 (Homo sapiens, UniProt Q00536)
# T8 construct: gene CDK16
# T8 sequence (Q00536 whole entry): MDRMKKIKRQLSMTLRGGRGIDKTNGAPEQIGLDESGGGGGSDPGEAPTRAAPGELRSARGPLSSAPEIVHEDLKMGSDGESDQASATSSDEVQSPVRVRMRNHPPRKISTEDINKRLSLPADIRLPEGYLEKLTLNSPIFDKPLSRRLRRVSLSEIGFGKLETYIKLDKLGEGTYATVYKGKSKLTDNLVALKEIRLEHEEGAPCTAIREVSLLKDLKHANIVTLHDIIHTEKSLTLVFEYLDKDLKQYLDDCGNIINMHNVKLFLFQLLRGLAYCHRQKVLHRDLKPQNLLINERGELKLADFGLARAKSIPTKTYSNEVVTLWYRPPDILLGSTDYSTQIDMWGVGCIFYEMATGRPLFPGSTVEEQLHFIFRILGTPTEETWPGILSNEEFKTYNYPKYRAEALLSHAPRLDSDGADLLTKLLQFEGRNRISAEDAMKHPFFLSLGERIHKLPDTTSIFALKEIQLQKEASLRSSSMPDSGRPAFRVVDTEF
# SYK = SYK (Homo sapiens, UniProt P43405)
# RAF1 = RAF1 (Homo sapiens, UniProt P04049)
# RAF1, sequence (P04049 whole entry): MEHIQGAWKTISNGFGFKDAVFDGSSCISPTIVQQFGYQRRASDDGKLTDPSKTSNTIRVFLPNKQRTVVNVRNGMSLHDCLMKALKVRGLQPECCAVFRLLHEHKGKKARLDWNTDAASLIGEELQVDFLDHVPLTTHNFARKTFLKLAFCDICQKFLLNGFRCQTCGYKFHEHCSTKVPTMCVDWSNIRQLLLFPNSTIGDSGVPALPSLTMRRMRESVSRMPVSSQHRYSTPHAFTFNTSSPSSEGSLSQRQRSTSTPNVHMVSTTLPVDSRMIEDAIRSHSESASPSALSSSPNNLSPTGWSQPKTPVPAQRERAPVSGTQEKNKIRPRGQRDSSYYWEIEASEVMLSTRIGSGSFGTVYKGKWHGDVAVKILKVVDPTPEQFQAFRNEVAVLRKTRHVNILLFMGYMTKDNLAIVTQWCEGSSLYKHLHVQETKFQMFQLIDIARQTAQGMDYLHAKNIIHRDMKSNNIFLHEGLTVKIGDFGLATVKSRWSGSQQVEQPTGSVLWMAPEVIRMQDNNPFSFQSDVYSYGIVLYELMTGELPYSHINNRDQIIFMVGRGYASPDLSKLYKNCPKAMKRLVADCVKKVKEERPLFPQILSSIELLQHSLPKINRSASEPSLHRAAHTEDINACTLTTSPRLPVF
# BMPR1A = BMPR1A (Homo sapiens, UniProt P36894)
# PRKCD = PRKCD (Homo sapiens, UniProt Q05655)
# PRKCD, sequence (Q05655 whole entry): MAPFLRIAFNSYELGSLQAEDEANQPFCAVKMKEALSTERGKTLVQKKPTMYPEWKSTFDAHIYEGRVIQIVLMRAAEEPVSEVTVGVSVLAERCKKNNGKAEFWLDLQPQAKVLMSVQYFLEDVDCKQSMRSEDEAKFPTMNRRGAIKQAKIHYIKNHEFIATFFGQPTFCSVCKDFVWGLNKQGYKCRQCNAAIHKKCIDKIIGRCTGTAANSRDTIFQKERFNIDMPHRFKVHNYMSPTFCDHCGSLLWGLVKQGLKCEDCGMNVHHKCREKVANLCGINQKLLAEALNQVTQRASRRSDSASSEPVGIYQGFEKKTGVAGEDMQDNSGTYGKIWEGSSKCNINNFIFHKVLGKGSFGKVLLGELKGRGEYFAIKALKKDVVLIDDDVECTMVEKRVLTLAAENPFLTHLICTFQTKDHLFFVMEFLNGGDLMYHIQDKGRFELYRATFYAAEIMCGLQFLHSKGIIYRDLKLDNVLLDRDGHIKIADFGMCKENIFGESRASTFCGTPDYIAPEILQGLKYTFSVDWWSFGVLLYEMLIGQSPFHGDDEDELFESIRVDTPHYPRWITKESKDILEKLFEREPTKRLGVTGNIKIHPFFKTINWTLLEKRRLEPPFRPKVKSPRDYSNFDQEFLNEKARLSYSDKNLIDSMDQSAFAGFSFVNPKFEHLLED
# KIT(D816V) = KIT(D816V) (Homo sapiens, UniProt P10721, D816V)
compound,measurement,setting,value
"COc1cc2c(cn1)N(C)C(=O)[C@@H](NC(=O)c1nc3n(n1)[C@H](c1ccccc1)CC3)CC2 [GNE684, (S)-N-((S)-7-methoxy-1-methyl-2-oxo-2,3,4,5-tetrahydro-1H-pyrido[3,4-b]azepin-3-yl)-5-phenyl-6,7-dihydro-5H-pyrrolo[1,2-b][1,2,4]triazole-2-carboxamide]",remaining binding at 10 µM,BMPR2,100%
same,remaining binding at 10 µM,PIK3CD,78%
same,remaining binding at 10 µM,ABL1-nonphosphorylated,67%
same,remaining binding at 10 µM,[1],91%
same,remaining binding at 10 µM,FER,90%
same,remaining binding at 10 µM,EPHA2,97%
same,remaining binding at 10 µM,[2],81%
same,remaining binding at 10 µM,MAP3K1,90%
same,remaining binding at 10 µM,SgK110,67%
same,remaining binding at 10 µM,GSK3A,63%
same,remaining binding at 10 µM,PKAC-alpha,73%
same,remaining binding at 10 µM,AKT2,92%
same,remaining binding at 10 µM,MKK7,98%
same,remaining binding at 10 µM,PRKCH,89%
same,remaining binding at 10 µM,AMPK-alpha1,97%
same,remaining binding at 10 µM,PCTK1,82%
same,remaining binding at 10 µM,SYK,75%
same,remaining binding at 10 µM,RAF1,77%
same,remaining binding at 10 µM,BMPR1A,91%
same,remaining binding at 10 µM,PRKCD,86%
same,remaining binding at 10 µM,KIT(D816V),100%
